Assay [1] concerns the target Neuronal acetylcholine receptor subunit alpha-7 (Rattus norvegicus, UniProt Q05941). Kind of assay: Antagonist activity at rat alpha7 nAChR expressed in xenopus oocytes assessed as inhibition of Ach- induced response at -70 mV holding potential preincubated for 5 mins followed by Ach stimulation by voltage-clamp based electrophysiological method. It counts as cell-based, Oocyte.

Assay [2] concerns the target T1, Nicotinic acetylcholine receptor alpha6/alpha3/beta4 (Homo sapiens, UniProt P30926+P32297+Q15825). Kind of assay: Antagonist activity at rat alpha6/alpha3beta4 nAChR expressed in xenopus oocytes assessed as inhibition of Ach- induced response at -70 mV holding potential preincubated for 5 mins followed by Ach stimulation by voltage-clamp based electrophysiological method. It is filed as cell-based, Oocyte.

For assay [3], the target named is Neuronal acetylcholine receptor; alpha3/beta2 (Rattus norvegicus, UniProt P04757+P12390). The experiment in a line: Antagonist activity at rat alpha3beta2 nAChR expressed in xenopus oocytes assessed as inhibition of Ach- induced response at -70 mV holding potential preincubated for 5 mins followed by Ach stimulation by voltage-clamp based electrophysiological method. It is filed as cell-based, Oocyte.

Assay [4] can be described thus: Antagonist activity at rat alpha6/ alpha3beta2beta3 nAChR expressed in xenopus oocytes assessed as inhibition of Ach- induced response at -70 mV holding potential preincubated for 5 mins followed by Ach stimulation by voltage-clamp based electrophysiological method. The following applies: Oocyte. It is filed as cell-based.
Assay [5] addresses Neuronal acetylcholine receptor; alpha2/beta2 (Rattus norvegicus, UniProt P12389+P12390). Kind of assay: Antagonist activity at rat alpha2beta2 nAChR expressed in xenopus oocytes assessed as inhibition of Ach- induced response at -70 mV holding potential preincubated for 5 mins followed by Ach stimulation by voltage-clamp based electrophysiological method. It counts as cell-based, Oocyte.

Assay [6] has as its target Neuronal acetylcholine receptor; alpha2/beta4 (Rattus norvegicus, UniProt P12389+P12392). The experiment in a line: Antagonist activity at rat alpha2beta4 nAChR expressed in xenopus oocytes assessed as inhibition of Ach- induced response at -70 mV holding potential preincubated for 5 mins followed by Ach stimulation by voltage-clamp based electrophysiological method. It is filed as cell-based, Oocyte.

In assay [7] the target is Neuronal acetylcholine receptor; alpha3/beta4 (Rattus norvegicus, UniProt P04757+P12392). The experiment in a line: Antagonist activity at rat alpha3beta4 nAChR expressed in xenopus oocytes assessed as inhibition of Ach- induced response at -70 mV holding potential preincubated for 5 mins followed by Ach stimulation by voltage-clamp based electrophysiological method. It is filed as cell-based, Oocyte.

The target of assay [8] is Neuronal acetylcholine receptor; alpha4/beta2 (Rattus norvegicus, UniProt P09483+P12390). Kind of assay: Antagonist activity at rat alpha4beta2 nAChR expressed in xenopus oocytes assessed as inhibition of Ach- induced response at -70 mV holding potential preincubated for 5 mins followed by Ach stimulation by voltage-clamp based electrophysiological method. It counts as cell-based, Oocyte.

For assay [9], the target named is Neuronal acetylcholine receptor; alpha4/beta4 (Rattus norvegicus, UniProt P09483+P12392). The experiment in a line: Antagonist activity at rat alpha4beta4 nAChR expressed in xenopus oocytes assessed as inhibition of Ach- induced response at -70 mV holding potential preincubated for 5 mins followed by Ach stimulation by voltage-clamp based electrophysiological method. It counts as cell-based, Oocyte.

For assay [10], the target named is Nicotinic acetylcholine receptor alpha9/alpha10 (Rattus norvegicus, UniProt P43144+Q9JLB5). Kind of assay: Antagonist activity at rat alpha9alpha10 nAChR expressed in xenopus oocytes assessed as inhibition of Ach- induced response at -70 mV holding potential preincubated for 5 mins followed by Ach stimulation by voltage-clamp based electrophysiological method. It is filed as cell-based, Oocyte.

Assay [11] deals with T1, Nicotinic acetylcholine receptor alpha6/alpha3/beta4. Kind of assay: Antagonist activity at rat alpha6/alpha3beta4 nAChR expressed in xenopus oocytes assessed as inhibition of Ach- induced response at 10^-5 M at -70 mV holding potential preincubated for 5 mins followed by Ach stimulation by voltage-clamp based electrophysiological method relative to control. The following applies: Oocyte, filed as antagonist, dose 1.0 10^-5M. Set-up: scale not given: the % may be the effect or the level left. It is filed as cell-based.

The target of assay [12] is Nicotinic acetylcholine receptor alpha9/alpha10 (Rattus norvegicus) (UniProt P43144+Q9JLB5). Kind of assay: Antagonist activity at rat alpha9alpha10 nAChR expressed in xenopus oocytes assessed as inhibition of Ach- induced response at 10 uM at -70 mV holding potential preincubated for 5 mins followed by Ach stimulation by voltage-clamp based electrophysiological method. It counts as cell-based. The following applies: Oocyte.

Assay [13] concerns the target Neuronal acetylcholine receptor; alpha2/beta2 (Rattus norvegicus) (UniProt P12389+P12390). Kind of assay: Antagonist activity at rat alpha2beta2 nAChR expressed in xenopus oocytes assessed as inhibition of Ach- induced response at 10 uM at -70 mV holding potential preincubated for 5 mins followed by Ach stimulation by voltage-clamp based electrophysiological method. It is filed as cell-based. The following applies: Oocyte.

Assay [14] concerns the target Neuronal acetylcholine receptor; alpha2/beta4 (Rattus norvegicus) (UniProt P12389+P12392). Kind of assay: Antagonist activity at rat alpha2beta4 nAChR expressed in xenopus oocytes assessed as inhibition of Ach- induced response at 10 uM at -70 mV holding potential preincubated for 5 mins followed by Ach stimulation by voltage-clamp based electrophysiological method. It is filed as cell-based. The following applies: Oocyte.

The target in assay [15] is Neuronal acetylcholine receptor; alpha3/beta4 (Rattus norvegicus) (UniProt P04757+P12392). Kind of assay: Antagonist activity at rat alpha3beta4 nAChR expressed in xenopus oocytes assessed as inhibition of Ach- induced response at 10 uM at -70 mV holding potential preincubated for 5 mins followed by Ach stimulation by voltage-clamp based electrophysiological method. It counts as cell-based. The following applies: Oocyte.

The target of assay [16] is Neuronal acetylcholine receptor; alpha4/beta2 (Rattus norvegicus) (UniProt P09483+P12390). Kind of assay: Antagonist activity at rat alpha4beta2 nAChR expressed in xenopus oocytes assessed as inhibition of Ach- induced response at 10 uM at -70 mV holding potential preincubated for 5 mins followed by Ach stimulation by voltage-clamp based electrophysiological method. It counts as cell-based. The following applies: Oocyte.

Assay [17] addresses Neuronal acetylcholine receptor; alpha4/beta4 (Rattus norvegicus) (UniProt P09483+P12392). The experiment in a line: Antagonist activity at rat alpha4beta4 nAChR expressed in xenopus oocytes assessed as inhibition of Ach- induced response at 10 uM at -70 mV holding potential preincubated for 5 mins followed by Ach stimulation by voltage-clamp based electrophysiological method. It is filed as cell-based. The following applies: Oocyte.

Assay [18] deals with Neuronal acetylcholine receptor; alpha3/beta2 (Rattus norvegicus) (UniProt P04757+P12390). Kind of assay: Antagonist activity at rat alpha3beta2 nAChR expressed in xenopus oocytes assessed as inhibition of Ach- induced response at 10^-5 M at -70 mV holding potential preincubated for 5 mins followed by Ach stimulation by voltage-clamp based electrophysiological method relative to control. It is filed as cell-based. Set-up: scale not given: the % may be the effect or the level left. The following applies: Oocyte, filed as antagonist, dose 1.0 10^-5M.

Each structure is given as a SMILES string. Active and inactive are the calls of the source. No cut-off for these calls is given here. Where a SMILES comes first, the peptide text is derived from it. Bridges are numbered along the chain shown (N, C = ends).

Neuronal acetylcholine receptor subunit alpha-7, sequence (Q05941 whole entry): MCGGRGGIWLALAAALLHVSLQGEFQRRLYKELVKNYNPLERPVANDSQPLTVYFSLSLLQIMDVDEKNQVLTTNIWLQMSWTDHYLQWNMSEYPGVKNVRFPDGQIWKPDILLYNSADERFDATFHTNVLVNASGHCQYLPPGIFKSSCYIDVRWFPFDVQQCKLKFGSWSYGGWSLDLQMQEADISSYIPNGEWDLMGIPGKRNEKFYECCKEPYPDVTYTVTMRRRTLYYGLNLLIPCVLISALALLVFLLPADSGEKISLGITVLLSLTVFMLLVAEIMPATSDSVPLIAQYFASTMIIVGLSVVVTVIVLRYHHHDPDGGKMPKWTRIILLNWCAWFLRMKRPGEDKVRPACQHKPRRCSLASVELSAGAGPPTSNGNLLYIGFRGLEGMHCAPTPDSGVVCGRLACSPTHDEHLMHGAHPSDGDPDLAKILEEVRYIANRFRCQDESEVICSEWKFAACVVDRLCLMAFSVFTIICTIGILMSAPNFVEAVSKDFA
Neuronal acetylcholine receptor; alpha3/beta2, sequence (P04757 whole entry): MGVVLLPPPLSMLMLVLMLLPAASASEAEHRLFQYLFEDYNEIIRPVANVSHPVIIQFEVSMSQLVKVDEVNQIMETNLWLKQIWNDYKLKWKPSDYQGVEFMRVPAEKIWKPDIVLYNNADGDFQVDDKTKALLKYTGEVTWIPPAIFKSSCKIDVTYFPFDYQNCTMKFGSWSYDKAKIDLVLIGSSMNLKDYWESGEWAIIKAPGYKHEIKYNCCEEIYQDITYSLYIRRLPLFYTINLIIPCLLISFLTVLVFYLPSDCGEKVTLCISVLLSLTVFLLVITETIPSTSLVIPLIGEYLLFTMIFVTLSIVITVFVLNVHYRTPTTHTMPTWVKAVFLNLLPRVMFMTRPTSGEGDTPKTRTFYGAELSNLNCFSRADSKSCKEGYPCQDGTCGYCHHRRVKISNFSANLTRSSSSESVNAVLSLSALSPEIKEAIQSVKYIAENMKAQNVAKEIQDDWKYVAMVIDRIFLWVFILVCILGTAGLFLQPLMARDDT
Neuronal acetylcholine receptor; alpha3/beta2, sequence (P12390 whole entry): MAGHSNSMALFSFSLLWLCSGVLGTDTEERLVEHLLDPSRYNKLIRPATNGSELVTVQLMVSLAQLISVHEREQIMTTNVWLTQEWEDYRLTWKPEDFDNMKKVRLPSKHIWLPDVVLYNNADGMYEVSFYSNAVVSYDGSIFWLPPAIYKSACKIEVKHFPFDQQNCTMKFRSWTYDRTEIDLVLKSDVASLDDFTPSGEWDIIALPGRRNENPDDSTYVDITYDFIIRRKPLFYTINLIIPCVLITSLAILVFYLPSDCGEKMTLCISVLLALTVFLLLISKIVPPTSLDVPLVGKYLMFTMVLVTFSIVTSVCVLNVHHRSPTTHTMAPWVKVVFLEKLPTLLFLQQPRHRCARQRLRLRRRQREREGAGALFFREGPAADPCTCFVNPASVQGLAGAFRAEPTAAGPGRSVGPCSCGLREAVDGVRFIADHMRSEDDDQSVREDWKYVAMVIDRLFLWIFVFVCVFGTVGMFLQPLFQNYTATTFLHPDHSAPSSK
Neuronal acetylcholine receptor; alpha3/beta4, sequence (P04757 whole entry): as the sequence (P04757 whole entry) above
Neuronal acetylcholine receptor; alpha3/beta4, sequence (P12392 whole entry): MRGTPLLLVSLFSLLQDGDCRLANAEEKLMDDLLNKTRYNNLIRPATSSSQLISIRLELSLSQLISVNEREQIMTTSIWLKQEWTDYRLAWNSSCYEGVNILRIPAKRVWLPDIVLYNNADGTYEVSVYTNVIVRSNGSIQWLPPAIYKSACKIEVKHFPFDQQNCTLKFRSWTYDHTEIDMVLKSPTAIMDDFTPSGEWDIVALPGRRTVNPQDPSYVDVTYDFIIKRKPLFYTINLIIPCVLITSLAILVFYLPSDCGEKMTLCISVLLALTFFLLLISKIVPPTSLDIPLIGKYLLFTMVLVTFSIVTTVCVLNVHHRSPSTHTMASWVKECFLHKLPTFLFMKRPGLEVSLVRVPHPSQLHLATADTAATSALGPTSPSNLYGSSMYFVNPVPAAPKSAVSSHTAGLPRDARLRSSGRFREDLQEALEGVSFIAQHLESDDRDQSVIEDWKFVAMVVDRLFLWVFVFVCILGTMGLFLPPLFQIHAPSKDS
Neuronal acetylcholine receptor; alpha4/beta4, sequence (P09483 whole entry): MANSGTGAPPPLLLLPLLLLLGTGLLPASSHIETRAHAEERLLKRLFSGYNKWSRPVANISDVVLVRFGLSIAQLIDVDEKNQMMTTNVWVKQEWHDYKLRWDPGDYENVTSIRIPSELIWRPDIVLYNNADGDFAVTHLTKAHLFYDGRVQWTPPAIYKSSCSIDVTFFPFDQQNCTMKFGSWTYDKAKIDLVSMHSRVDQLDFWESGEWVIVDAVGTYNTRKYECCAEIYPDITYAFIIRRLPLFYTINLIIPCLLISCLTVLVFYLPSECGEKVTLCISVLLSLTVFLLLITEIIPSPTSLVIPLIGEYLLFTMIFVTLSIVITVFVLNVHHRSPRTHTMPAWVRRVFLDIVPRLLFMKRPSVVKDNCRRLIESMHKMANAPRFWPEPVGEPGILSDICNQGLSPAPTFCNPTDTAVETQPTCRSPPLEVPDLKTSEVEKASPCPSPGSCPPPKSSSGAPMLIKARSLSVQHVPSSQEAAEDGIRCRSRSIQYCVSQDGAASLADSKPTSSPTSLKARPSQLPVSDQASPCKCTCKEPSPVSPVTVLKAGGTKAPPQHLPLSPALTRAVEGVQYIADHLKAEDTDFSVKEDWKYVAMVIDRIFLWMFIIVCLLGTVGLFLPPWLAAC
Neuronal acetylcholine receptor; alpha4/beta4, sequence (P12392 whole entry): as the sequence (P12392 whole entry) above
Neuronal acetylcholine receptor; alpha4/beta2, sequence (P09483 whole entry): as the sequence (P09483 whole entry) above
Neuronal acetylcholine receptor; alpha4/beta2, sequence (P12390 whole entry): as the sequence (P12390 whole entry) above

For orientation: IC50 means the concentration that gives 50% inhibition. For the compound `C[C@@H]1NC(=O)[C@@H]2CSSC[C@H](N)C(=O)N[C@@H](CSSC[C@@H](C(N)=O)NC(=O)[C@H](Cc3cnc[nH]3)NC(=O)[C@H](CCC(=O)O)NC(=O)[C@H](Cc3cnc[nH]3)NC1=O)C(=O)N[C@@H](CO)C(=O)N[C@@H](CC(N)=O)C(=O)N1CCC[C@H]1C(=O)N1CCC[C@H]1C(=O)N2` (H-CCSNPPCAHEHC-NH2; disulfide 1-7, 2-12), the IC50 in assay [1] is 1.81 µM; in [2], more than 10 µM; in assay [3] it was 4.63 µM; in [4] it was 3.3 µM; in [5] it was more than 10 µM; in assay [6], more than 10 µM. In addition, the IC50 in assay [7], in assay [8], in [9] and in assay [10] was more than 10 µM throughout. For the same compound, the Activity in assay [11] is less than 50%. Moreover, the inhibition entry in [12], in assay [13], in assay [14], in assay [15], in assay [16] and in assay [17] was “inactive” throughout.

With `C[C@@H]1NC(=O)[C@@H]2CSSC[C@H](NC(=O)[C@@H](N)CCC(N)=O)C(=O)N[C@@H](CSSC[C@@H](C(=O)N[C@@H](CCCNC(=N)N)C(=O)O)NC(=O)[C@H](Cc3cnc[nH]3)NC(=O)[C@H](CCC(=O)O)NC(=O)[C@H](Cc3cnc[nH]3)NC1=O)C(=O)N[C@@H](CO)C(=O)N[C@@H](CC(N)=O)C(=O)N1CCC[C@H]1C(=O)N1CCC[C@H]1C(=O)N2` (H-QCCSNPPCAHEHCR-OH; disulfide 2-8, 3-13), the half-inhibitory concentration (IC50) in assay [1] is 1.76 µM; in assay [2], more than 10 µM; in [3], more than 10 µM; in assay [4], 5.3 µM; in [5], more than 10 µM; in assay [6], more than 10 µM. In addition, the 50% inhibitory concentration (IC50) in assay [7], in assay [8], in assay [9] and in [10] was more than 10 µM throughout. The Activity in [18] is less than 50%. Moreover, the inhibition entry in assay [12], in assay [13], in assay [14], in [15], in [16] and in assay [17] was “inactive” throughout.
